The source of these data is ChEMBL document CHEMBL1151126, “Studies on inhibitors of skin tumor promotion, III. Inhibitory effects of isoflavonoids from Wisteria brachybotrys on Epstein-Barr virus activation” (J Nat Prod, 1988).

Data set [1] has as its system HeLa. As to the kind of experiment: Inhibition of TPA-stimulated [32P] incorporation into phospholipids in human HeLa cells at 50 uM after 1 hr. The format is functional.
In data set [2] the test system is Raji. As to the kind of experiment: Inhibition of 12-O-tetradecanoylphorbol-13-acetate-induced EBV-early antigen activation in human Raji cells assessed as early antigen induction at 10000 molar ratio after 48 hrs by indirect immunofluorescence technique relative to TPA. It counts as cell-based. Conditions: human gammaherpesvirus 4. More on the design: scale not given: the % may be the effect or the level left.

Data set [3] deals with Raji. As to the kind of experiment: Inhibition of 12-O-tetradecanoylphorbol-13-acetate-induced EBV-early antigen activation in human Raji cells assessed as early antigen induction at 1000 molar ratio after 48 hrs by indirect immunofluorescence technique relative to TPA. The format is cell-based. On the set-up: scale not given: the % may be the effect or the level left. The settings on record: human gammaherpesvirus 4.

Data set [4] deals with Raji. As to the kind of experiment: Inhibition of 12-O-tetradecanoylphorbol-13-acetate-induced EBV-early antigen activation in human Raji cells assessed as early antigen induction at 100 molar ratio after 48 hrs by indirect immunofluorescence technique relative to TPA. On the set-up: scale not given: the % may be the effect or the level left. The settings on record: human gammaherpesvirus 4. It counts as cell-based.

For data set [5], the system named is Raji. As to the kind of experiment: Inhibition of 12-O-tetradecanoylphorbol-13-acetate-induced EBV-early antigen activation in human Raji cells assessed as early antigen induction at 10 molar ratio after 48 hrs by indirect immunofluorescence technique relative to TPA. The format is cell-based. More on the design: scale not given: the % may be the effect or the level left. Conditions: human gammaherpesvirus 4.

Data set [6] in a line: Cytotoxicity against human Raji cells assessed as cell viability at 10000 molar ratio. It counts as cell-based. Conditions: read-out: Activity.
Data set [7] is described as follows: Cytotoxicity against human Raji cells assessed as cell viability at 1000 molar ratio. The format is cell-based. The settings on record: read-out: Activity.
Data set [8] can be described thus: Cytotoxicity against human Raji cells assessed as cell viability at 100 molar ratio. The format is cell-based. Conditions: read-out: Activity.
Data set [9] can be described thus: Cytotoxicity against human Raji cells assessed as cell viability at 10 molar ratio. The format is cell-based. Conditions: read-out: Activity.
The test system of data set [10] is Raji. As to the kind of experiment: Inhibition of EBV-early antigen activation in human Raji cells assessed as early antigen activation at 320 nM. It counts as cell-based. More on the design: scale not given: the % may be the effect or the level left. Conditions: human gammaherpesvirus 4.
Data set [11] concerns HeLa. Put plainly: Cytotoxicity in human HeLa cells assessed as decrease in cell number at 50 uM after 1 hr. It counts as cell-based.
Data set [12] concerns HeLa. Put plainly: Cytotoxicity in human HeLa cells assessed as effect on cell viability at 50 uM after 1 hr. It counts as cell-based.
The species named for another data set is Mus musculus. Put plainly: Displacement of [3H]TPA from TPA receptor in ICR mouse epidermal particulate fraction by Me2CO filter method.

SMILES strings stand for the structures. Activity calls are given as the source filed them. The rule behind the calls is not given here. Some results are limits rather than exact numbers.

On to `COc1ccc(-c2coc3cc(O[C@@H]4O[C@H](CO)[C@@H](O)[C@H](O)[C@H]4O)ccc3c2=O)cc1` [ONONIN], for which the inhibition (as a rule, how much of the control response was suppressed) at 50 µM in the data set with HeLa [1] was found to be 12.3%. Moreover, the Activity with Raji [2] is 39.3%; with Raji [3], 76%; in the data set on Raji [4], 100%; with Raji [5] it was 100%; with Raji [10] it was 2%; in the data set on HeLa [11], “Non-toxic”. The Activity result with HeLa [12] is reported as “Non-toxic”. Also, the viability at 10000 molar ratio in data set [6] amounted to 80%. Also, the viability at 1000 molar ratio in [7] is more than 80%. Further, the viability at 100 molar ratio in [8] amounted to 100%. Besides, in data set [9], the viability at 10 molar ratio turned out to be 100%.
Take `CCCCCCCCCCCCCC(=O)O[C@@H]1[C@@H](C)[C@@]2(O)[C@@H](C=C(CO)C[C@]3(O)C(=O)C(C)=C[C@@H]23)[C@@H]2C(C)(C)[C@]12OC(C)=O`: the result in the data set filed under Mus musculus was Active.
With `COc1ccc(-c2coc3cc(OC(C)=O)c(OC)cc3c2=O)cc1`, testing at 50 µM in the data set on HeLa [1] gave an inhibition of 33.9%. Besides, the Activity is 0% in the data set with Raji [2]; 6% in the data set on Raji [3]; 42.3% with Raji [4]; 72.7% in the data set with Raji [5]; 2.1% in the data set on Raji [10]; “Non-toxic” with HeLa [11]. In addition, the Activity result in the data set with HeLa [12] is reported as “Non-toxic”. In addition, in data set [6], the viability at 10000 molar ratio amounted to 80%. Besides, the viability at 1000 molar ratio in [7] is more than 80%. Also, the viability at 100 molar ratio in [8] is more than 80%. Besides, the viability at 10 molar ratio in data set [9] is 100%. Besides, in the data set filed under Mus musculus, the outcome was inactive.
Take `COc1ccc(-c2coc3cc(OC(C)=O)ccc3c2=O)cc1`: testing at 50 µM with HeLa [1] gave an inhibition of 40.2%. In addition, the Activity with Raji [2] is 0%; in the data set on Raji [3] it was 15.2%; in the data set on Raji [4] it was 95.2%; in the data set with Raji [5], 100%; in the data set on Raji [10], 0%; in the data set on HeLa [11], “Non-toxic”. For the same compound, the Activity result in the data set on HeLa [12] is on record as “Non-toxic”. In data set [6], the viability at 10000 molar ratio was 80%. The viability at 1000 molar ratio in data set [7] was more than 80%. The viability at 100 molar ratio in [8] worked out at 100%. Besides, the viability at 10 molar ratio in [9] is 100%.
As for `C=C[C@]1(C)CC[C@@](C)(C(C)C)c2cc3c4c(c[nH]c4c21)C[C@@H](CO)NC(=O)[C@H](C(C)C)N3C`, the outcome in the data set filed under Mus musculus was Active.
In the data set with HeLa [1], `COc1ccc(-c2coc3cc(O)ccc3c2=O)cc1` [FORMONONETIN] had an inhibition at 50 µM of 34.5%. For the same compound, the Activity in the data set with Raji [2] was 0%; in the data set with Raji [3], 63.6%; in the data set with Raji [4], 92.6%; in the data set on Raji [5], 100%; with Raji [10], 0%; in the data set on HeLa [11], “Non-toxic”. Also, the Activity result in the data set on HeLa [12] was “Non-toxic”. In [6], the viability at 10000 molar ratio came to 20%. Besides, the viability at 1000 molar ratio in data set [7] was more than 80%. Besides, the viability at 100 molar ratio in [8] was more than 80%. In [9], the viability at 10 molar ratio amounted to 100%. The outcome in the data set listed under Mus musculus was inactive.
The compound `COc1ccc(-c2coc3cc(O)c(OC)cc3c2=O)cc1` [CASTANIN] registered an inhibition at 50 µM in the data set with HeLa [1] of 16.4%. Besides, the Activity in the data set on Raji [2] is 0%; in the data set on Raji [3], 36.4%; in the data set with Raji [4] it was 75.8%; in the data set with Raji [5], 100%; in the data set on Raji [10] it was 34%; with HeLa [11], “Non-toxic”. Further, in the data set on HeLa [12], the Activity result was “Non-toxic”. The viability at 10000 molar ratio in [6] is 80%. For the same compound, the viability at 1000 molar ratio in data set [7] is more than 80%. Besides, the viability at 100 molar ratio in data set [8] is more than 80%. In addition, the viability at 10 molar ratio in data set [9] is 100%. In the data set listed under Mus musculus, the outcome was inactive.
In the data set with HeLa [1], `COc1ccc(-c2coc3cc(O[C@@H]4O[C@H](CO)[C@@H](O)[C@H](O)[C@H]4O)c(OC)cc3c2=O)cc1` [WISTIN] returned an inhibition at 50 µM of 0%. Moreover, the Activity is 15.2% in the data set with Raji [2]; 78.5% with Raji [3]; 86.6% in the data set on Raji [4]; 100% in the data set with Raji [5]; 0% with Raji [10]; “Non-toxic” in the data set with HeLa [11]. Also, in the data set on HeLa [12], the Activity result is given as “Non-toxic”. The viability at 10000 molar ratio in [6] is 50%. Moreover, the viability at 1000 molar ratio in data set [7] is more than 80%. For the same compound, in data set [8], the viability at 100 molar ratio was more than 80%. For the same compound, the viability at 10 molar ratio in data set [9] turned out to be 100%.
